Experiments:
SerRS phosphorylation = test: Hypoxia-induced phosphorylation of endogenous SerRS in HEK293 cells with ATM/ATR inhibitors (IP/IB); assay type: cell-based, human; conditions: HEK293 pretreated with inhibitor for one hour, hypoxia 12 hours
Experimental: In FIG. 7C, HEK293 cells were pretreated with specific ATM inhibitor KU-55933 and ATR inhibitor VE-821 for one hour and then cultured under hypoxia condition for 12 hours. Cell lysates were subjected to IP with anti-SerRS antibody followed by immunoblot (IB) with anti-P-SQ antibody for detecting phosphorylated SerRS (P-SerRS). Phosphorylation of known ATM/ATR substrates (Chk1 and Chk2) was also immunoblotted.
Cells were resuspended with lysis buffer (20 mM Tris-HCl (pH 7.5), 150 mM NaCl, 1 mM of EDTA, 1 mM EGTA, 1% Triton X-100, 2.5 mM sodium pyrophosphate, 1 mM beta-glycerophosphate, 1 mM Na3VO4, and protease inhibitor cocktail) on ice. Supernatants were incubated with indicated antibodies and protein-G-conjugated agarose beads (ThermoFisher Scientific) for at least 2 h. The beads were washed five times with wash buffer (same as the lysis buffer, except that Triton X-100 was reduced from 1% to 0.1%) and then subjected to SDS-PAGE and immunoblotting analysis with indicated antibodies.

VEGFA [1] = test: VEGFA mRNA induction by 12-hour hypoxia in HEK293 cells (qRT-PCR); assay type: cell-based, human; conditions: inhibitor 5 μM pretreatment, hypoxia 12 hours
Experimental: In FIG. 3B, HEK293 cells were transiently transfected with SerRS^WT or SerRS^S101A/S241A constructs or empty control vector. 24 hours post-transfection, VEGFA mRNA induction by 12-hour-hypoxia treatment was monitored by qRT-PCR (means±SEM from four independent experiments; *P<0.05, **P<0.01, ***P<0.005). In FIG. 3C, HEK293 cells were transiently transfected with indicated constructs. 36 hours post-transfection, VEGFA mRNA induction by 12-hour-hypoxia treatment was monitored by qRT-PCR (means±SEM from four independent experiments; *P<0.0, **P<0.001, ***P<0.0001). The protein levels of SerRS, HIF-1α, and β-actin were examined by western blot (bottom).
Transient transfections were performed using Lipofectamine 2000 (ThermoFisher Scientific).
One gram of the total RNA from each sample was reversely transcribed to cDNA by M-MLV reverse transcriptase (Promega, Madison, Wis., USA). All real-time PCR reactions were performed using the StepOnePlus Real-Time PCR system (ThermoFisher Scientific) with SYBR Select Master Mix ThermoFisher Scientific). […] The PCR reaction program started at 95° C. for 10 min, followed by 45 cycles of 95° C. for 20 seconds and 60° C. for 1 min. Each experiment was carried out in triplicate. The VEGFA gene expression was normalized to that of β-ACTIN. Statistical analyses were performed with the software SigmaPlot (version 10.0). Student's t-test was used to analyze the changes between different groups.

Vegfa [2] = test: Vegfa mRNA by qRT-PCR in zebrafish embryos with SerRS knockdown and mRNA co-injection; assay type: in vivo; conditions: morpholino injected into 1-cell stage embryos, 3 dpf
Experimental: (§1) In FIG. 2A, wild type SerRS (SerRS^WT), its mutants with double substitutions of serine 101 and 241 with alanine or aspartic acid residues (SerRS^S101A/S241A and SerRS^S101D/S241D), or empty vector were transfected into HEK293 cells. The expression levels of SerRS proteins was measured by immunoblot (bottom) and VEGFA expression was determined by qRT-PCR (means±SEM from three independent experiments; ***P<0.0001). In FIGS. 2B-D, the roles of SerRS^S101A/S241A and SerRS^S101D/S241D in regulating vascular development in vivo in zebrafish were examined by co-injection of SerRS^S101A/S241A and SerRS^S101D/S241D mRNAs into one-cell-stage embryos whose endogenous SerRS was knocked down by injection of antisense morpholino (SerRS-MO) that led to abnormal high expression of Vegfa and hypervascularization (shown by short bold arrows in FIG. 2C). At 3 day post fertilization (dpf), embryos were harvested and Vegfa expression levels were measured by qRT-PCR (means±SEM, n=125-211; *P<0.01, **P<0.001) (B). The development of intersegmental vessel (ISV) at 3 dpf was examined (C) and the statistics of ISV abnormal branching rescued by SerRS^WT or mutant SerRS mRNA injections was analyzed (D; χ^2-test,* P>0.05 vs SerRS^WT, **P>0.1 vs SerRS-MO, ***P<1×10^−28 vs control-MO). In FIG. 2E, the binding affinities of SerRS^WT or SerRS^S101D/S241D with ^32P labeled DNA fragments corresponding to SerRS binding site on human VEGFA promoter were examined by EMSA. In FIG. 2F, the binding of SerRS^WT, SerRS^S101A/S241A, or SerRS^S101D/S241D on VEGFA promoter in HEK293 cells was examined by chromatin immunoprecipitation (ChIP) and qPCR (means±SEM from two independent experiments; ***P<0.0001). In FIG. 2G, the binding of endogenous SerRS on VEGFA promoter during hypoxia course was monitored by ChIP (means±SEM from three independent experiments; *P<0.05, **P<0.005 vs normal).
Total RNA was isolated from cells and zebrafish embryos by TRIzol Reagent (ThermoFisher Scientific). […] of the total RNA from each sample was reversely transcribed to cDNA by M-MLV reverse transcriptase (Promega, Madison, Wis., USA). All real-time PCR reactions were performed using the StepOnePlus Real-Time PCR system (ThermoFisher Scientific) with SYBR Select Master Mix ThermoFisher Scientific). […]

zebrafish embryos = test: Intersegmental vessel (ISV) branching in zebrafish embryos; assay type: in vivo; conditions: SerRS-MO alone, 3 dpf
Experimental: as §1
Transgenic Tg (Fli1a: EGFP) fish were maintained as we described before (Ref). The fish embryos were kept at 28.5° C. before and after microinjection. The antisense morpholino (MOs) targeting SerRS was injected into the yolk of 1-cell stage embryos at the dosage of 4˜5 ng per embryo. The sequence of SerRS-MO is (Ref). The SerRS-MO (5′ AGGAGAATGTGAACAAACCTGACAC 3′ (SEQ ID NO: 34)) and standard control MO (5′ CCTCTTACCTCAGTTACAATTTATA 3′ (SEQ ID NO: 35)) were purchased from Gene Tools, LLC (Philomath, Oreg. USA). After injection, embryos were incubated in E3 embryo medium supplemented with 0.003% 1-phenyl-2-thiourea (PTU) at 28.5° C. to prevent pigment formation. […] The rescue effects of different SerRS mutants on ISV development were analyzed with χ^2 test. […]

ATM/ATR kinases = test: In vitro phosphorylation of recombinant SerRS by DNA-activated HEK293 nuclear extract (p-SQ immunoblot, 32P-labelling); assay type: biochemical, human; conditions: recombinant his6-tagged protein, p-SQ antibody and 32P-labelling
Experimental: FIGS. 1A-G show SerRS is important for hypoxia induced VEGFA expression and is phosphorylated by ATM and ATR kinases under hypoxia at serine 101 and serine 241 residues. In FIG. 1A, HEK293 cells were transfected with shRNAs targeting SerRS (sh-SerRS) or GlyRS (sh-GlyRS), or nonspecific control shRNA (sh-Control). 48 hours post-transfection, cells were cultured under hypoxia or normoxia conditions for 12 hours. Immunoblot of cell lysates with anti-SerRS, anti-GlyRS and anti-β-actin antibodies (left). VEGFA expression levels were measured by qRT-PCR (right) and relative induction of VEGFA transcription under hypoxia were plotted (right, inset) (means±SEM. from four independent experiments; *P<0.01, **P<0.0001). […] The conserved ATM/ATR substrate motif residues are underlined. In FIG. 1C, recombinant his6-tagged human SerRS or GlyRS were incubated with γ-^32P-ATP and HEK293 cell nuclear extracts which are treated with or without double-stranded DNA oligoes mimicking DNA damage stimuli to activate ATM/ATR/DNA-PK kinases. Recombinant proteins were then purified by Ni-NTA beads and subjected to SDS-PAGE and autoradiography. In FIG. 1D, recombinant his6-tagged two human aminoacyl tRNA synthetases (AARS): TyrRS and GlyRS, wild type SerRS, or SerRS mutants with single or double substitutions of serine 101 and serine 241 with alanine (S101A, S241A, and S101A/S241A) were treated as described in FIG. 1C and phosphorylated recombinant proteins were immunoblotted with antibodies as indicated after purification by Ni-NTA beads. In FIG. 1E, HEK293 cells were cultured under hypoxia for 3, 6, and 12 hours. Phosphorylated SerRS was immunoblotted with specific anti-p-SQ antibody after SerRS proteins were immunoprecipitated (IP). Cell lysates were immunoblotted with indicated antibodies for known ATM and ATR substrates (Chk1 and P53). In FIG. 1F, Flag-tagged wild type and mutant SerRS constructs were transfected into HEK293 cells. 24 hours post-transfection, cells were treated with hypoxia stress for 12 hours and ectopically expressed SerRS was then purified by immunoprecipitation (IP) using anti-Flag antibody and immunoblot (IB) with anti-P-SQ antibody and anti-Flag antibody. In FIG. 1G, HEK293 cells were transfected with siRNA against ATM (si-ATM) or ATR (si-ATR) and treated with hypoxia stress for 12 hours. Phosphorylated SerRS were immunoblotted as described in FIG. 1E. […]
For protein purification, human SerRS and its mutant genes were subeloned into pET-20b(+) plasmid (Novagen, Darmstadt, Germany) and overexpressed in E. coli. […] The purities of the recombinant proteins were assessed by Coomassie blue staining following 4-12% Mini Gel (ThermoFisher Scientific) electrophoresis. Protein concentrations were determined using Bradford protein assay (BioRad, Hercules, Calif., USA). […]

| Compound | SerRS phosphorylation under hypoxia (SerRS phosphorylation) | VEGFA induction under hypoxia (VEGFA [1]) | level of phosphorylation in vitro (ATM/ATR kinases) | further results |
| --- | --- | --- | --- | --- |
| O=c1cc(-c2cccc3c2Sc2ccccc2S3)oc(N2CCOCC2)c1 [KU-55933, reference compound] | blocked | less but still statistically significant |  |  |
| CS(=O)(=O)c1ccc(-c2cnc(N)c(C(=O)Nc3ccccc3)n2)cc1 [VE-821, reference compound] | blocked | dramatically inhibited VEGFA induction |  |  |
| SerRS-MO: antisense morpholino targeting zebrafish SerRS, SEQ ID NO: 34 (antisense AGGAGAATGTGAACAAACCTGACAC; all phosphorodiamidate morpholino (PMO)) [reference compound] |  |  |  | increase in the mRNA level of Vegfa (Vegfa [2]): 4 fold; zebrafish embryos with abnormal hyper-ISV branching phenotype (zebrafish embryos): 69.7% |
| SerRS^S101A: human SerRS mutant, serine 101 substituted with alanine, SEQ ID NO: 2 |  |  | decreased level of phosphorylation |  |
| SerRS^S241A: human SerRS mutant, serine 241 substituted with alanine, SEQ ID NO: 3 |  |  | almost had no phosphorylation |  |

— patent US20190167771A1, “CONTROL ANGIOGENESIS BY REGULATING PHOSPHORYLATION OF SERYL-tRNA SYNTHETASE (SerRS)” (The Scripps Research Institute, priority 2016, published 2019)
